This data set in a line: solvent given as SMILES.

Turning to `CN1CCN(c2ccc3c4c(cccc24)C(=O)c2ccccc2-3)CC1`, the fluorescence lifetime reads like this: (in C1CCCCC1) 8.9 ns; (in C1CCOC1) 10 ns; (in C1COCCO1) 10.3 ns; (in CC1COC(=O)O1) 8.04 ns; (in CC#N) 9.53 ns; (in CC(C)=O) 8.45 ns. Besides, the fluorescence lifetime (in CCCCCCCCO) was determined as 5.99 ns; the fluorescence lifetime (in CCCCCO) was determined as 5.38 ns; the fluorescence lifetime (in CCCCO) amounted to 5.03 ns; the fluorescence lifetime (in CCCO) came out at 4.66 ns; the fluorescence lifetime (in CCO) was determined as 3.77 ns; the fluorescence lifetime (in CCOC(C)=O) was determined as 9.8 ns. In addition, the fluorescence lifetime by setting is: (in CN(C)C=O) 8.27 ns; (in CO) 2.93 ns; (in CS(C)=O) 8.5 ns; (in Cc1ccccc1) 9.37 ns; (in ClC(Cl)Cl) 10.4 ns.
As to `COc1nc(Cl)nc(Nc2ccc3c4c(cccc24)C(=O)c2ccccc2-3)n1`, the fluorescence lifetime reads like this: (in CC#N) 8.4 ns; (in CC(C)=O) 7.7 ns; (in CC(C)O) 8 ns; (in CCCCOCCCC) 0.9 ns; (in CCOC(C)=O) 3.9 ns; (in CCOCC) 1.6 ns. Besides, the fluorescence lifetime is, setting by setting: (in CO) 7.7 ns; (in Cc1ccccc1) 2.8 ns; (in Clc1ccccc1) 5.4 ns; (in N#Cc1ccccc1) 7.8 ns; (in O=C1CCCCC1) 6.3 ns.
Take `C1=Cc2nc1c(-c1cccs1)c1ccc([nH]1)c(-c1cccs1)c1nc(c(-c3cccs3)c3ccc([nH]3)c2-c2cccs2)C=C1`: the fluorescence lifetime runs as follows: (in CN(C)C=O) 2.09 ns; (in ClCCl) 9.27 ns.
Compound `O=S1(=O)c2ccc(-c3c4ccccc4cc4ccccc34)cc2-c2cc(-c3c4ccccc4cc4ccccc34)ccc21` yielded a fluorescence lifetime (in C1CCCCC1) of 3.2 ns, a fluorescence lifetime (in CC#N) of 4.3 ns and a fluorescence lifetime (in ClCCl) of 3.7 ns.
In the case of `COC(=O)c1ccc(C#Cc2ccccc2)cc1`, the fluorescence lifetime stood at 0.59 ns (in C1CCCCC1); 0.52 ns (in CC#N); 0.64 ns (in CC(C)O); 0.55 ns (in CCCCCC); 0.55 ns (in CCCCCCCCCCCCCCCC); 0.59 ns (in CCCCCCCCCCCCCCCCCl). The compound also gave a fluorescence lifetime (in CO) of 0.62 ns.
Consider `CCN(CC)c1ccc2c(c1)oc(=O)c1c(C)nc3c(cnn3-c3ccccc3)c12`, for which the fluorescence lifetime (in ClCCl) turned out to be 2.72 ns.
Consider `CCCCCCCCOc1ccc2c3cccc4c(OCCCCCCCC)ccc(c5cccc1c52)c43`, for which the fluorescence lifetime turned out to be 3.88 ns (in C1CCOC1); 3.65 ns (in Cc1ccccc1); 3.82 ns (in ClC(Cl)(Cl)Cl); 3.77 ns (in ClC(Cl)Cl); 4.17 ns (in ClCCl); 4.01 ns (in c1ccncc1).
In turn, `CCCCCCCCOc1cc(/C=C/c2cc[n+](Cc3ccc(C)cc3)cc2)c(OCCCCCCCC)cc1/C=C/c1cc[n+](Cc2ccc(C)cc2)cc1` came in with a fluorescence lifetime (in ClCCl) of 1.23 ns.
Consider `CCOC(=O)CN1C(=O)C2=C(c3ccc(C#N)cc3)N(CC(=O)OCC)C(=O)C2=C1c1ccc(C#N)cc1`, for which the fluorescence lifetime is 6.67 ns (in CC#N), 6.5 ns (in CS(C)=O) and 6.48 ns (in Cc1ccccc1).
Regarding `C(#Cc1ccc(C#Cc2ccccc2)cc1)c1ccccc1`, the fluorescence lifetime (in ClC(Cl)Cl) came out at 2.57 ns.
Consider `c1ccc(-c2nc(-c3ccc(N4c5ccccc5C(c5ccccc5)(c5ccccc5)c5ccccc54)cc3)cc(-c3ccc(N4c5ccccc5C(c5ccccc5)(c5ccccc5)c5ccccc54)cc3)n2)cc1`, for which the fluorescence lifetime (in O=P(c1ccccc1)(c1ccccc1)c1ccc2oc3ccc(P(=O)(c4ccccc4)c4ccccc4)cc3c2c1) was 11 ns.
Turning to `Cc1ccccc1C1=C2C=c3c(oc4ccc(C(C)(C)C)cc34)=[N+]2[B-](F)(F)n2c1cc1c3cc(C(C)(C)C)ccc3oc12`, the fluorescence lifetime by setting is: (in C1CCCCC1) 4.11 ns; (in CCOC(C)=O) 4.28 ns; (in CO) 4.21 ns.
Take `CCC1(CC)c2cc(/C=C/c3cccs3)ccc2-c2c1c1c(c3c2C(CC)(CC)c2cc(/C=C/c4cccs4)ccc2-3)C(CC)(CC)c2cc(/C=C/c3cccs3)ccc2-1`: for the setting “in C1CCOC1”, the fluorescence lifetime stood at 1.6 ns.

The record behind these values is the Deep4Chem optical property database.
